In article PMC8648660, “Multifunctional thiosemicarbazones targeting sigma receptors: in vitro and in vivo antitumor activities in pancreatic cancer models” (Cellular Oncology, 2021):

Experiments:
[1] = system: sigma-1 and sigma-2 receptor subtypes; parameters: method as in PMID 24106081; settings: cited from earlier work
[2] = system: AspC1 cells; parameters: method as in PMID 29287249; settings: cited from earlier work
[3] = system: GRP78, ATF6, IRE1 and PERK; experiment: qRT-PCR of ER stress markers in pancreatic cancer cells; assay type: cell-based, human and murine; settings: 50 µM, 2 h
Procedure: Total RNA was extracted using a phenol/chloroform method, after which 1 µg RNA was reverse-transcribed using an iScript Reverse Transcription Supermix kit according to the manufacturer’s instructions (Bio-Rad Laboratories). 25 ng cDNA was amplified using 10 µl of an IQ™ SYBR Green Supermix (Bio-Rad Laboratories). Primers were designed using qPrimer Depot software (http://primerdepot.nci.nih.gov/). qRT-PCR was carried out using an iQ^TM5 cycler (Bio-Rad Laboratories). The cycling conditions used were: 30 s at 95 °C, followed by 40 cycles of denaturation (15 s at 95 °C) and annealing/extension (30 s at 60 °C). The same cDNA preparations were used to quantify the expression of genes of interest and that of the housekeeping gene S14, which was used to normalize the gene expression levels. Relative quantitation of each sample was performed using Gene Expression Quantitation software (Bio-Rad Laboratories). The results were expressed in arbitrary units. For each gene, the expression level in untreated cells was arbitrarily set at “1”.

[4] = system: KP02 cells; parameters: method as in PMID 29287249; settings: cited from earlier work
[5] = system: PANC02 cells; parameters: method as in PMID 29287249; settings: cited from earlier work
[6] = system: BxPC3 cells; parameters: method as in PMID 29287249; settings: cited from earlier work
[7] = system: MiaPaCa2 cells; parameters: method as in PMID 29287249; settings: cited from earlier work
[8] = system: PANC-1 cells; parameters: method as in PMID 29287249; settings: cited from earlier work
[9] = system: HPDE cells; parameters: method as in PMID 29287249; settings: read-out: Activity EC50, HPDE (normal cells); cited from earlier work
[10] = Systemic toxicity and hematochemical parameters of treated PANC-1 tumor-bearing mice; settings: gemcitabine 20 mg/kg twice a week; mean ± SD
Procedure: 2 × 10^5 PANC-1 or Mia-PaCa2 cells were inoculated subcutaneously in the right flank of 6-week old C57BL/6 female nude mice (Charles River Laboratories Italia, Calco), housed (5 per cage) under a 12 h light/dark cycle, with food and drinking water provided ad libitum. Tumor growth was measured daily by caliper, according to the equation (LxW^2)/2, where L = tumor length and W = tumor width. […] Tumor volumes and animal weights were monitored daily. Animals were euthanized at day 18 or 36 after randomization with zolazepam (0.2 ml/kg) and xylazine (16 mg/kg). […] Red blood cell (RBC) count, hemoglobin (Hb), white blood cell (WBC) count, platelet (PLT) count, lactate dehydrogenase (LDH), aspartate aminotransferase (AST), alanine aminotransferase (ALT), alkaline phosphatase (AP), creatinine and creatine phosphokinase (CPK) were measured in blood samples collected immediately after euthanasia, using commercially available kits from Beckman Coulter Inc (Beckman Coulter, Miami, FL, USA).
Blood was collected immediately after euthanasia and analyzed for red blood cells (RBC) count, hemoglobin (Hb), white blood cells (WBC) count, platelets (PLT) count, lactate dehydrogenase (LDH), aspartate aminotransferase (AST), alanine aminotransferase (ALT), alkaline phosphatase (AP), creatinine, creatine phosphokinase (CPK). Data are presented as means ± SD.

[11] = system: MiaPaCa2 xenografts; experiment: In vivo xenograft assay, MiaPaCa2; parameters: species or system mice; settings: gemcitabine 20 mg/kg twice a week, 15 days
Procedure: 2 × 10^5 PANC-1 or Mia-PaCa2 cells were inoculated subcutaneously in the right flank of 6-week old C57BL/6 female nude mice (Charles River Laboratories Italia, Calco), housed (5 per cage) under a 12 h light/dark cycle, with food and drinking water provided ad libitum. Tumor growth was measured daily by caliper, according to the equation (LxW^2)/2, where L = tumor length and W = tumor width. When tumors reached a volume of 100 mm^3, the mice (n = 8/group) were randomized in the following groups and treated daily for 15 days or 30 days intraperitoneally as reported: (1) Vehicle group (100 µl saline solution), (2) FA4^low group (750 nmol FA4 in 100 µl saline solution), (3) FA4^high group (1500 nmol FA4 in 100 µl saline solution) and (4) Gemcitabine group (20 mg/kg gemcitabine, twice a week). Tumor volumes and animal weights were monitored daily. Animals were euthanized at day 18 or 36 after randomization with zolazepam (0.2 ml/kg) and xylazine (16 mg/kg). Next, tumors were excised and paraffin-embedded. […] Quantification of the immunohistochemical analyses was performed using ImageJ software (https://imagej.nih.gov/). The staining intensities were expressed as arbitrary units and considered 1 in the vehicle group.

[12] = system: PANC-1 xenografts; experiment: In vivo xenograft assay, PANC-1; parameters: species or system mice; settings: for tumor growth: gemcitabine 20 mg/kg twice a week
Procedure: 2 × 10^5 PANC-1 or Mia-PaCa2 cells were inoculated subcutaneously in the right flank of 6-week old C57BL/6 female nude mice (Charles River Laboratories Italia, Calco), housed (5 per cage) under a 12 h light/dark cycle, with food and drinking water provided ad libitum. Tumor growth was measured daily by caliper, according to the equation (LxW^2)/2, where L = tumor length and W = tumor width. When tumors reached a volume of 100 mm^3, the mice (n = 8/group) were randomized in the following groups and treated daily for 15 days or 30 days intraperitoneally as reported: (1) Vehicle group (100 µl saline solution), (2) FA4^low group (750 nmol FA4 in 100 µl saline solution), (3) FA4^high group (1500 nmol FA4 in 100 µl saline solution) and (4) Gemcitabine group (20 mg/kg gemcitabine, twice a week). Tumor volumes and animal weights were monitored daily. Animals were euthanized at day 18 or 36 after randomization with zolazepam (0.2 ml/kg) and xylazine (16 mg/kg). Next, tumors were excised and paraffin-embedded. Sections were immuno-stained for cleaved caspase 3 (Cell Signalling Technology, Danvers, MA, USA) or with an anti-malondialdehyde antibody (Abcam), followed by a peroxidase-conjugated secondary antibody (Dako, Glostrup, Denmark). The sections were examined under a Leica DC100 microscope (Leica, Wetzlar, Germany). Quantification of the immunohistochemical analyses was performed using ImageJ software (https://imagej.nih.gov/). The staining intensities were expressed as arbitrary units and considered 1 in the vehicle group.

Compound | EC50 [2] [µM] | mRNA expression of ER stress markers GRP78, ATF6, IRE1, PERK [3] | EC50 [4] [µM] | EC50 [5] [µM] | EC50 [6] [µM] | EC50 [7] [µM] | EC50 [8] [µM] | EC50 [9] [µM] | also measured
Fc1ccc(-n2cc(CCCCN3CCC4(CC3)OCc3ccccc34)c3ccccc32)cc1 [siramesine] | – | – | – | – | – | – | – | – | binding to sigma-1 versus sigma-2 receptor subtypes [1]: binds equally well to the sigma-1 and sigma-2 receptor subtypes
CN(C)C(=S)N/N=C1\C(=O)N(CCCCN2CCN(C3CCCCC3)CC2)c2ccccc21 [PS3, (Z)-2-[1-[4-(4-cyclohexylpiperazin-1-yl)butyl]-2-oxoindolin-3-ylidene]-N,N-dimethylhydrazinecarbothioamide] | 3.86 | none of the markers was increased in the other cells | 7.32 | 1.17 | 6.15 | 10.1 | 8.73 | 5.35 | –
Nc1ccn([C@@H]2O[C@H](CO)[C@@H](O)C2(F)F)c(=O)n1 [gemcitabine] | – | – | – | – | – | – | – | – | ALT [10]: 36±12 U/l; AP [10]: 134±43 U/l; AST [10]: 142±18 U/l; CPK [10]: 309±32 U/l; Hb [10]: 11.03 ± 1.94 g/dL; LDH [10]: 6704±832 U/l; PLT [10]: 931±165 x 10^3/µl; RBC [10]: 11.28±0.98 x 10^6/µl; WBC [10]: 12.18±2.39 x 10^3/µl; tumor growth [11]: MiaPaCa2 tumors were more sensitive to gemcitabine; tumor growth ([12]; 15 days): ineffective against this tumor cell line; tumor growth ([12]; 30 days): not able to significantly reduce tumor growth; intratumor apoptosis (cleaved caspase 3) and lipid peroxidation ([12]; gemcitabine, 30 days): low or undetectable
COc1cc2c(cc1OC)CN(CCCCN1C(=O)/C(=N\NC(=S)N(C)C)c3ccccc31)CC2 [MLP44, (Z)-2-(1-(4-(6,7-dimethoxy-3,4-dihydroisoquinolin-2(1H)-yl)butyl)-2-oxoindolin-3-ylidene)-N,N-dimethylhydrazinecarbothioamide] | 2.01 | none of the markers was increased in the other cells | 6.92 | 1.33 | 2.34 | 14.6 | 14.6 | 9.5 | –
CN(C)C(=S)N/N=C1\C(=O)Nc2ccccc21 [ACthio-1, (Z)-N,N-dimethyl-2-(2-oxoindolin-3-ylidene)hydrazinecarbothioamide] | 2.17 | none of the markers was increased in the other cells | 2.83 | 1.21 | 2.52 | 18.3 | > 100 | 10.5 | –
